Reference: patent publication US20260364175A1, “COMPOSITIONS FOR DRUG ADMINISTRATION” (Aegis Therapeutics, LLC, priority 2018, published 2026)
Entries after “also recorded” stand apart in the source; their conditions may differ.

Assays:
[1] = 10 mg fast-dispersing tablet with alkylsaccharide, buccal
clinical = settings: human, in vivo
[2] = whole-swallowed tablet, oral; cited from earlier work
blood glucose [3] = experiment: Ocular administration of insulin plus absorption enhancer, blood glucose in anesthetized rats; type: in vivo, rat (male Sprague-Dawley)
blood glucose [4] = experiment: Insulin plus tetradecylmaltoside as eye drops then nose drops, blood glucose in rats; type: in vivo, rat
Excerpt: Tetradecylmaltoside (TDM) in combination with insulin also produced a drop in blood D-glucose levels when administered in the form of a drop intranasally as well as via a drop by the ocular route. […] Thus, intranasal delivery and administration of the alkyl saccharide with drug results in lowering of blood glucose levels.

[5] = test system: Escherichia coli (ATCC No. 8739); experiment: Antibacterial activity, log reduction of cfu; type: cell-based; settings: 0.2%; day 28
Excerpt: (§1) The viable microorganisms used in the invention were not more than five passages removed from the original ATCC culture. As described herein, one passage is defined as the transfer of organisms from an established culture to fresh medium and all transfers are counted.
(§2) Cultures received from the ATCC are resuscitated according to the directions provided by the ATTC. Cells grown in broth were pelleted by centrifugation, resuspended in 1/20th the volume of fresh maintenance broth, and combined with an equal volume of 20% (v/v in water) sterile glycerol. Cells grown on agar were scraped from the surface into the maintenance broth also containing 10% glycerol broth. Small aliquots of the suspension were dispensed into sterile vials and the vials were stored in liquid nitrogen or in a mechanical freezer at a temperature no higher than about −50 °C. When a fresh seed-stock vial was required, it was removed and used to inoculate a series of working stock cultures. These working stock cultures were then used periodically (each day in the case of bacteria and yeast) to start the inoculum culture.
(§3) The culture conditions for the inoculum culture is substantially as described in Table IV. For example, suitable media can include but is not limited to, Soybean-Casein Digest or Sabouraud Dextrose Agar Medium. […]
(§4) The suspension should be refrigerated if it is not used within 2 hours. To confirm the initial cfu per mL estimate, the number of cfu per mL in each suspension was determined using the conditions of media and microbial recovery incubation times listed in Table IV (e.g., from about 3 to about 7 days). This value serves to calibrate the size of inoculum used in the test. The bacterial and yeast suspensions were used within 24 hours of harvest; whereas the fungal preparation can be stored under refrigeration for up to 7 days.
(§5) To determine which alkylglycoside formulations have antibacterial activity, the formulations were prepared in phosphate buffered saline (PBS) at pH 7. As a source of nutrition, either 1.5 mg/mL bovine serum albumin (BSA; see Tables V and VI) or 1 mg/mL of PYY was added (see Table VII) to the medium. BSA (CAS Number: 9048-46-8) was obtained from Sigma-Aldrich, St. Louis, MO, USA, n-dodecyl-4-O-α-D-glucopyranosyl-β-D-glucopyranoside and n-tetradecyl-4-O-α-D-glucopyranosyl-β-D-glucopyranoside were obtained from Anatrace Inc., Maumee, OH, USA, and PYY was obtained from Bachem California Inc., Torrance, CA, USA.
(§6) Antibacterial activity of the alkylglycosides were conducted in four sterile, capped bacteriological containers of suitable size into which a sufficient volume of alkylglycoside solution had been transferred. Each container was inoculated with one of the prepared and standardized inoculums and mixed. The volume of the suspension inoculum was between about 0.5% and about 1.0% of the volume of the alkylglycoside solution. […]. To determine the level of inhibition of growth, or reduction of growth based on a logarithmic scale, the initial concentration of viable microorganisms in each test preparation was estimated based on the concentration of microorganisms in each of the standardized inoculum as determined by the plate-count method. The inoculated containers were then incubated at about 22.5 °C±2.5. The growth or non-growth of the microorganisms in each culture/container were again determined at day 14 and day 28. The number of cfu present in each calculation was determined by the plate-count procedure standard in the art for the applicable intervals. The change in the orders of magnitude of bacterium and/or fungi was then determined by subtracting the first calculated log 10 values of the concentrations of cfu per mL present at the start or beginning (e.g., day 0), from the log 10 values of the concentration of cfu per mL for each microorganism at the applicable test intervals (e.g., day 14 and day 28; see Tables V, VI and VII).

[6] = test system: Staphylococcus aureus (ATCC No. 6538); experiment: Antibacterial activity, log reduction of cfu; type: cell-based
Excerpt: as §1, §2, §3, §4, §5, §6

[7] = test system: Aspergillus niger (ATCC No. 16404); experiment: Antimicrobial activity, log reduction of cfu; type: cell-based
Excerpt: as §1, §2, §3, §4, §5, §6

[8] = test system: Candida albicans (ATCC No. 10231); experiment: Antimicrobial activity, log reduction of cfu; type: cell-based
Excerpt: as §1, §2, §3, §4, §5, §6

human nasal epithelium = experiment: Nasal mucosa irritation
mucociliary surfaces = settings: far below concentrations used in intranasal formulations; cited from earlier work
[9] = aqueous liquid with SDS and an organic acid; cited from earlier work
blood glucose [10] = experiment: Oral liraglutide with Intravail A3, blood glucose under dietary sugar challenge; type: in vivo, human; settings: Intravail A3 (FIG. 11)
Protocol: Procedure was as follows. […] Composition was mixed with disposable plastic dropper. 40 grams of dietary sugar was ingested and 60 minutes allowed to pass. Blood glucose was measured (upper arm just above elbow on left arm) using meter=To. Deposit composition on back of tongue and swallow. Blood glucose level was measured and recorded at T=10, 20, 30, 40, 55, 70, 80 and 90 min.

food intake = settings: injection, on average; cited from earlier work
blood glucose [11] = experiment: Ocular administration of glucagon plus surfactant, blood glucose in rats; type: in vivo, rat; settings: eye drops, 0.5% surfactant plus glucagon (30 μg)
blood glucose [12] = settings: previous studies; cited from earlier work
[13] = Raloxifene pharmacokinetics; type: in vivo
Protocol: The recommended dosage is one 60 mg tablet daily. […]. […].

[14] = cited from earlier work
[15] = Oral phenylephrine tablet bioavailability in a canine model; type: in vivo, dog; settings: compressed tablets
Protocol: In a canine model, subjects were dosed orally with various phenylephrine (PE) tablet formulations, and blood samples were taken to determine the rate of parent phenyl ethyl phenylephrine absorption. Blood levels of parent phenylephrine were measured. Three subject groups were created with each alkylsaccharide test group containing five subjects in each test group. All subject groups received 10 mg of phenylephrine as a single tablet. Each subject was in the fasting state for overnight and two hours post dose. Blood samples were taken at pre-dose, 5, 10, 15, 30, 45 min., 1, 2, and 3 hours.
Comparator was the standard 30 mg (total weight including excipients) phenylephrine tablet was no absorption enhancer. Group number 2 tablets contain the alkylsaccharide designated A3, which is n-dodecyl-beta-D-maltoside in the amounts of 2.5 mg, 5 mg, and 7.5 mg, respectively. Group number three tablets contain the alkylsaccharide designated B3, which is sucrose monododecanoate, in the amounts of 5 mg, 10 mg, and 20 mg, respectively.

[16] = cited from earlier work; remark: listed apart in the source
[17] = fast-dispersing tablets 50 mg with 1% to 2% alkylsaccharide
[18] = formulations specifically optimized for oral delivery; cited from earlier work

For `Cc1cc2c(s1)Nc1ccccc1N=C2N1CCN(C)CC1` [olanzapine], the first-pass effect metabolism [1] was “substantially reduced first-pass effect metabolism”, the Tmax (clinical; 10 mg) was 0.25 to 0.75 h and the Tmax (clinical; po) was roughly 6 h. For the same molecule, the hepatic extraction ratio (clinical; po) was roughly 0.4 and the “time to peak concentrations” value [2] was “approximately 6 hours”.

In the case of `CCCCCCCCCCCCCCO[C@@H]1O[C@H](CO)[C@@H](O[C@H]2O[C@H](CO)[C@@H](O)[C@H](O)[C@H]2O)[C@H](O)[C@H]1O` [Tetradecyl Maltoside, n-tetradecyl-4-O-α-D-glucopyranosyl-β-D-glucopyranoside], the “effect on blood glucose / ocular insulin absorption” value (blood glucose [3]; 0.5% enhancer with 0.2% insulin eye drops) was “effective as absorption enhancers”, the “effect on ocular insulin absorption” value (blood glucose [3]; […] enhancer with insulin eye drops) was “effective as absorption enhancers” and the “effect on ocular insulin absorption (alkyl chain length comparison)” value (blood glucose [3]; alkylmaltosides with insulin eye drops) was “more effective”. The “Blood Glucose” value (blood glucose [4]; 0 min, insulin eye drops with […]) was 322 mg/dL, the “effect on blood glucose” value (blood glucose [4]; 0.2% insulin eye drops with […] TDM) was “prompt and prominent drop in blood glucose levels” and the “Blood Glucose” value (blood glucose [4]; 15 min, insulin eye drops with […]) was 335 mg/dL. The “Blood Glucose” value (blood glucose [4]; 30 min, insulin eye drops with […]) was 276 mg/dL, the “Blood Glucose” value (blood glucose [4]; 45 min, insulin eye drops with […]) was 221 mg/dL and the “Blood Glucose” value (blood glucose [4]; 60 min, insulin eye drops with […]) was 212 mg/dL. The “Blood Glucose” value (blood glucose [4]; 75 min, insulin eye drops with […]) was 167 mg/dL, the “Blood Glucose” value (blood glucose [4]; 90 min, insulin eye drops with […]) was 174 mg/dL and the “Blood Glucose” value (blood glucose [4]; 120 min, insulin eye drops with […]) was 208 mg/dL. For the same molecule, the “Blood Glucose” value (blood glucose [4]; 135 min, after insulin nose drops with 0.5%) was 129 mg/dL, the “Blood Glucose” value (blood glucose [4]; 150 min, after insulin nose drops with 0.5%) was 74 mg/dL and the “Blood Glucose” value (blood glucose [4]; 165 min, after insulin nose drops with 0.5%) was 76 mg/dL. The “Blood Glucose” value (blood glucose [4]; 180 min, after insulin nose drops with 0.5%) was 68 mg/dL, the “Blood Glucose” value (blood glucose [4]; […], insulin eye drops with […]) was 167 mg/dL and the “growth from initial count” value [5] was “No growth”. The log reduction at 0.2 % ([6]; ATCC6538, 336 h) was no less than 5, the log reduction at 0.2 % ([6]; ATCC6538, 672 h) was no less than 5 and the “growth from initial count” value ([7]; 0.2%, day 28) was “No growth”. For the same molecule, the log reduction at 0.2 % ([7]; Aspergillus niger, ATCC16404, 336 h) was 0.5, the log reduction at 0.2 % ([8]; ATCC10231, 336 h) was 3 and the log reduction at 0.2 % ([8]; ATCC10231, 672 h) was no less than 5.4. For the same molecule, the “irritation of the nasal mucosa” value (human nasal epithelium; […] in OTC nasal saline, daily, 33 days) was “no observable irritation of the nasal mucosa”.

In the case of benzalkonium chloride, the “disruption of mucociliary surfaces” value (mucociliary surfaces) is listed as “significant disruption of the mucociliary surfaces”.

For Calcitonin: calcitonin, the stability [9] is listed as “at least 6 months”.

For `CCCCCCCCCCCCCCCC(=O)N[C@@H](CCC(=O)NCCCC[C@H](NC(=O)[C@H](C)NC(=O)[C@H](C)NC(=O)[C@H](CCC(N)=O)NC(=O)CNC(=O)[C@H](CCC(=O)O)NC(=O)[C@H](CC(C)C)NC(=O)[C@H](Cc1ccc(O)cc1)NC(=O)[C@H](CO)NC(=O)[C@H](CO)NC(=O)[C@@H](NC(=O)[C@H](CC(=O)O)NC(=O)[C@H](CO)NC(=O)[C@@H](NC(=O)[C@H](Cc1ccccc1)NC(=O)[C@@H](NC(=O)CNC(=O)[C@H](CCC(=O)O)NC(=O)[C@H](C)NC(=O)[C@@H](N)Cc1cnc[nH]1)[C@@H](C)O)[C@@H](C)O)C(C)C)C(=O)N[C@@H](CCC(=O)O)C(=O)N[C@@H](Cc1ccccc1)C(=O)N[C@H](C(=O)N[C@@H](C)C(=O)N[C@@H](Cc1c[nH]c2ccccc12)C(=O)N[C@@H](CC(C)C)C(=O)N[C@H](C(=O)N[C@@H](CCCNC(=N)N)C(=O)NCC(=O)N[C@@H](CCCNC(=N)N)C(=O)NCC(=O)O)C(C)C)[C@@H](C)CC)C(=O)O` [Liraglutide], the dose response (blood glucose [10]) was “positive dose response”.

In the case of “PYY: gut hormone fragment peptide PYY3-36”, the “reduction of food eaten” value (food intake) is listed as 30%.

In the case of `CC1(C)[C@@H](O[C@@H]2OC[C@H](O[C@@H]3OC[C@@H](O)[C@H](O)[C@H]3O)[C@H](O[C@H]3O[C@H](CO)[C@@H](O)[C@H](O)[C@H]3O)[C@H]2O[C@@H]2O[C@H](CO)[C@@H](O)[C@H](O)[C@H]2O[C@H]2O[C@H](CO)[C@@H](O)[C@H](O)[C@H]2O)CC[C@]2(C)[C@H]3CCC45OCC6(CC[C@@](C)(C=O)C[C@@H]64)[C@H](O)C[C@@]5(C)[C@]3(C)CC[C@@H]12` (stereo partly shown) [saponin, reference compound], the “effect on ocular glucagon absorption / blood D-glucose” value (blood glucose [11]) is listed as “effective; also recorded: rises significantly” and the “stimulation of insulin absorption from the eye” value (blood glucose [12]) is listed as “stimulated”.

In the case of `O=C(c1ccc(OCCN2CCCCC2)cc1)c1c(-c2ccc(O)cc2)sc2cc(O)ccc12` [raloxifene], the “circulating inactive raloxifene glucuronide” value ([13]; fast-dispersing tablet 10 mg or less, 0.5% to 5% dodecyl maltoside, buccal) is listed as “less circulating inactive raloxifene glucuronide”, the bioavailability ([13]; human, in vivo, fast-dispersing 60 mg tablet (without alkylsaccharide), read-out: absolute bioavailability) is listed as roughly 2% and the water solubility [14] is listed as “approx. 0.25 mg/L”.

In the case of `CCCCCCCCCCCC(=O)OC[C@H]1O[C@H](O[C@]2(CO)O[C@H](CO)[C@@H](O)[C@@H]2O)[C@H](O)[C@@H](O)[C@@H]1O` [sucrose dodecanoate, sucrose monododecanoate], the “increase of oral bioavailability of phenylephrine” value [15] is given as “up to 50%”, the “amount consumable without observable adverse effect” value ([16]; 70 kilogram person) is given as 1400-2100 grams per day and the “acceptable daily intake for humans” value ([16]; about 1% of the NOAEL) is given as 14-21 grams per day. For the same molecule, the NOAEL ([16]; in vivo) was 20-30 grams/kilogram/day and the “irritation of nasal epithelium” value (human nasal epithelium; 47 days) was “no observable irritation was detected”.

In the case of `CN(C)CCOC(c1ccccc1)c1ccccc1` [Diphenhydramine], the onset of action [17] was “more rapid onset of action”.

In the case of “Parathyroid hormone: parathyroid hormone”, the oral bioavailability [18] is listed as 2.1%.
